From patent US11583552B2, “Pharmaceutical formulation of arsenic trioxide” (priority 2021, dated 2023)
Like-named read-outs stand apart in the source and are kept apart here.

Key:
[1] = cited from earlier work
[2] = Inhouse trials: Arsenic Trioxide in glycerin with sodium hydroxide; type: physicochemical; details: dissolved first in sodium hydroxide solution, then added to Glycerin

Question: For Arsenic Trioxide, which “solubility of Arsenic Trioxide in 100 g of water” value (shortened to “solubility of Arsenic Trioxide”) ([1]; 0° C.) is on record?
Answer: The value was 1.2 g.

Question: And the “solubility of Arsenic Trioxide” value ([1]; 25° C.)?
Answer: Its value is 2.1 g.

Question: And the “solubility of Arsenic Trioxide” value ([1]; 75° C.)?
Answer: Its value is 5.6 g.

Question: And the “solubility in alcohol, chloroform, and ether” value [1]?
Answer: The value was “insoluble”.

Question: What about the “concentrated solution of Arsenic Trioxide formed in presence of Glycerin” value [2] of the same substance?
Answer: Its value is 157.4 mg/mL.
